# Several values for one entry are separate records, joined by “and”; a condition that tells them apart may be missing. Equal values may be shown once. Entries after “also recorded” stand apart in the source; their conditions may differ. Where a SMILES comes first, the peptide text is derived from it. The star is where a group is joined. X1 = NC(=O)CCOCCOCCOCCOCCOCCOCCOCCOCCOCCOCCOCCOCCOCCOCCOCCOCCOCCOCCOCCOCCOCCOCCOCCOCCOCCOCCOCCOCCN*
# How the values were obtained:
# [1] = tested on: Gαi; test: Gαi activation, pull-down of GTP-bound Gαi in AML14.3D10-CCR3 cells; format: cell-based, human; conditions: 10 μM, 8 nM CCL11
# Procedure: GTP-bound Gal was detected using a commercial Gαi assay kit (Abcam, Cambridge, Mass.) with modifications. Briefly, AML14.3D10-CCR3 cells were serum-starved for 16 hours before being pretreated with […] pertussis toxin for 2 hours, 10 μM R3-2-1 for 30 minutes, or with vehicle control. Pretreated cells were then stimulated with 8 nM CCL11 or medium for 1 minute. The reaction was stopped by adding ice cold PBS. Ten (10) million cells were used for each condition. Washed cells were lysed with 1× lysis buffer following manufacturer instructions. For pull-down of active Gαi, mouse anti-GTP bound Gαi antibody was conjugated to DYNABEADS Protein G (Life Technologies, Carlsbad, Calif.) for 15 minutes at room temperature. Conjugated beads were washed 3 times with Tris-buffered saline+TWEEN® polysorbate (TBST) and incubated with cell lysates for 20 minutes at room temperature. After washing with TBST, bound proteins were eluted by boiling the beads in 2×SDS buffer for 5 minutes. Eluates were resolved by SDS-PAGE and immunoblotted using a polyclonal rabbit anti-total Gαi antibody (Cell Signaling Technology).
# [2] = tested on: eosinophil recruitment into the esophageal epithelium; test: Mouse model of EoE, oxazalone-challenged L2-IL5 transgenic mice; format: in vivo; conditions: i.v., 24 hours after last OXA challenge
# Procedure: Skin sensitized L2-IL5 transgenic mice received topical esophageal oxazalone (OXA) challenges by gavage (i.e.) on days 5, 8 and 12 (FIG. 5A). R3-2-1 peptide nanoparticles, control peptide (R3-2-3) or CCR3 inhibitor UCB35625 (UCB) were given immediately before on days 5, 8, 10 and 12 (FIG. 5A). Esophageal eosinophilia was assessed 24 hours after the last OXA challenge and treatment (day 13). […] Error bars represent SEM.
# Mice were treated i.v. with R3-2-1 peptide, scrambled R3-2-3 control peptide ([…]-PEG27-NH2; SEQ ID NO:24), or the allosteric non-selective CCR3 inhibitor, UCB35625. Eosinophil recruitment into the esophageal epithelium was assessed 24 hours after the last OXA challenge by counting eosinophils in 9 high power fields (hpf) covering the total esophagus or 3 hpf covering the distal esophagus.
# [3] = target: T1, CCR3 (Homo sapiens, UniProt P51677); test: NMR (13C HSQC) evaluation of binding to CCR3 membrane preparations; set-up: expressed in transfected cells; host or cells: 4DE4 mouse pre-B cell lymphoma line; conditions: 10 μM R321, 1 μM CCL11, CCR3 membrane preps 0.25 mg/ml
# T1 sequence (P51677 1-355): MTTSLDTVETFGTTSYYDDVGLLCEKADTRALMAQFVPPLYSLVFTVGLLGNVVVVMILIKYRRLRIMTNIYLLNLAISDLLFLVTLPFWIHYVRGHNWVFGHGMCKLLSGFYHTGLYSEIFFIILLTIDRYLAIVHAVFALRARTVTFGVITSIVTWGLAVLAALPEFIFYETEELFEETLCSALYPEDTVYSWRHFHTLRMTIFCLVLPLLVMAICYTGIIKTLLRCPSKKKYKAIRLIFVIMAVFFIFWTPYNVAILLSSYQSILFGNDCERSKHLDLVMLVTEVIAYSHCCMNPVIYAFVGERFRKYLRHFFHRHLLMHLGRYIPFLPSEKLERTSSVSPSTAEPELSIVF
# Procedure: FIG. 6A to FIG. 6E show NMR evaluation of the binding of R3-2-1 and CCL11/eotaxin-1 to CCR3 membrane preparations. ^13C HSQC spectra of ^13C-reductively methylated CCR3 membrane preps (0.25 mg/ml) were recorded with 1 μM CCL11 and 10 μM R321. […] Black arrows indicate the differences in chemical shifts.
# Ligand binding to GPCR induces conformational transitions in the receptor that activate G-proteins and β-arrestin recruitment. […] Because R3-2-1 is an analog of the second transmembrane helix of CCR3, it is expected that R3-2-1 competes with the native helix 2 for binding to helices 1 and 3. Binding to helix 3 may disrupt the structure and orientation of the DRY motif in intracellular loop 2, inhibiting G-proteins.
# [4] = tested on: eosinophil recruitment into the lung airspaces; test: Triple antigen (DRA) allergic mouse asthma model; format: in vivo
# Procedure: Treatment of mice with CCR3 R3-2-1 peptide nanoparticles, scrambled R3-2-3 peptide nanoparticles or vehicle controls was administered i.v. by retro-orbital injection starting on day 11, one day before intranasal DRA allergen challenges on days 12-14 to assess its effect on inhibiting the recruitment of eosinophils into the lung airspaces and airways. Blood, bronchoalveolar lavage (BAL) fluid and lung tissue were harvested on day 15.
# In the triple antigen driven allergic mouse model, mice are sensitized and airway-challenged with a combination of aeroallergens including Dust mite, Ragweed and Aspergillus sp. (DRA; Goplen, et al. (2009) J. Allergy Clin. Immunol. 123:925-932). This model recapitulates many of the pathologic features of human asthma, including eosinophil recruitment into the lung and airspaces, eosinophil degranulation, increased expression of Th2 cytokines, airway hyperreactivity (AHR), and airway remodeling (goblet cell metaplasia and mucus overproduction), and airway smooth muscle hyperplasia and subepithelial fibrosis. Using this model, the effectiveness of R3-2-1 in blocking allergen-induced eosinophil recruitment into the airways and development of airway pathologies in mice was evaluated. It was determined whether systemic (i.v.) administration of R3-2-1 nanoparticles has the capacity to inhibit eotaxin-mediated eosinophil recruitment into the airways. Mice subjected to the triple antigen (DRA) protocol were treated with R3-2-1, scrambled peptide (R3-2-3) and vehicle controls via i.v. administration following antigen sensitization, 24 hours prior to the first allergen challenge on Day 11 of the protocol (FIG. 7), and for i.v. routes, repeated before each subsequent allergen challenge.
compound,measurement,setting,value
CC[C@H](C)[C@H](NC(=O)[C@H](Cc1c[nH]c2ccccc12)NC(=O)[C@H](Cc1ccccc1)NC(=O)[C@@H]1CCCN1C(=O)[C@H](CC(C)C)NC(=O)[C@@H](NC(=O)[C@@H](NC(=O)[C@H](CC(C)C)NC(=O)[C@H](Cc1ccccc1)NC(=O)[C@H](CC(C)C)NC(=O)[C@@H](N)CC(C)C)C(C)C)[C@@H](C)O)C(=O)N[C@@H](Cc1c[nH]cn1)C(=O)N[C@@H](Cc1ccc(O)cc1)C(=O)N[C@H](C(=O)N[C@@H](CCCNC(=N)N)C(=O)NCC(=O)N[C@@H](Cc1c[nH]cn1)C(=O)N[C@@H](CC(N)=O)C(=O)N[C@@H](Cc1c[nH]c2ccccc12)C(=O)N[C@H](C(=O)N[C@@H](Cc1ccccc1)C(=O)NCC(=O)N[C@@H](Cc1c[nH]cn1)C(=O)N[C@@H](CC(=O)O)C(=O)N[C@@H](CC(=O)O)C(=O)N[C@@H](CC(=O)O)C(=O)NCCOCCOCCOCCOCCOCCOCCOCCOCCOCCOCCOCCOCCOCCOCCOCCOCCOCCOCCOCCOCCOCCOCCOCCOCCOCCOCCOCCOCCC(N)=O)C(C)C)C(C)C [Peptide R3-2-1] (H-LLFLVTLPFWIHYVRGHNWVFGHDDD-X1; N-terminus assumed),activation of Gαi (GTP-bound form),[1],inhibit the activation of Gαi
same,eosinophil recruitment into distal and total esophageal epithelium,[2],significantly blocked eosinophil recruitment; also recorded: significantly reduced eosinophil recruitment
same,binding to CCR3 by NMR chemical shift changes,[3],chemical shift changes indicative of binding
same,% Inhibition of eosinophil recruitment (BAL fluid),[4]; 3 mg/kg i.v.,19.54 ± 14.81%
same,% Inhibition of eosinophil recruitment (BAL fluid),[4]; 6 mg/kg i.v.,44.24 ± 9.33%
same,% Inhibition of eosinophil recruitment (BAL fluid),[4]; 9 mg/kg i.v.,53.03 ± 10.82%
same,% Inhibition of eosinophil recruitment (BAL fluid),"[4]; 12 mg/kg i.v., compared to vehicle and R3-2-3 controls",69.3% and 69.33 ± 4.20%
same,IC50 for inhibition of total number of eosinophils recruited into the lung airspaces,[4]; i.v.,8.16 mg/kg
same,total number of eosinophils recruited into the lung airspaces,"[4]; i.v., BAL fluid",significantly inhibits

# Reference: patent US11167012B2, “Peptide inhibition of CCR3-mediated diseases or conditions” (The Board of Trustees of the University of Illinois, priority 2015, dated 2021)
